Assay results: patent US6743809B2, “Indole Derivatives useful for the treatment of CNS disorders” (H. Lundbeck A/S, priority 2000, dated 2004)

The molecules below were run against T1, human cloned dopamine D4.2 receptors (Homo sapiens, UniProt P21917, DEL265-296) (assay: Inhibition of the binding of [3H]YM-09151-2 to human dopamine D4 receptors). Conditions: 50 nM compound; [3H]YM-09151-2 0.06 nM; membranes of CHO-cells.
T1 construct: expressed in transfected cells; host or cells: CHO cells
T1 sequence (P21917 with tags, fused parts or gaps DEL265-296): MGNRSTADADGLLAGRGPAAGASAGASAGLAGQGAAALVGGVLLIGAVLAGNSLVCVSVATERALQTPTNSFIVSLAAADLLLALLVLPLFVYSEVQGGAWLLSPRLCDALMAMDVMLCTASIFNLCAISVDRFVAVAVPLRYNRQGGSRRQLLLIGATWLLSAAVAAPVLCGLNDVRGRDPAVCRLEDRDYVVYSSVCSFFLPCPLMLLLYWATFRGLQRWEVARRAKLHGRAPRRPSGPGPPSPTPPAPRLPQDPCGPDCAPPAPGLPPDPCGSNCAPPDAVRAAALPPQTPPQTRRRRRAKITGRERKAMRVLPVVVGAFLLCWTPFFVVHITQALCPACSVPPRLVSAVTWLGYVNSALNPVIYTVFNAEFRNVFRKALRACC
Description: Inhibition of the Binding of [^3H]YM-09151-2 to Human Dopamine D4 Receptors
By this method, the inhibition by drugs of the binding of [^3H]YM-09151-2 (0.06 nM) to membranes of human cloned dopamine D4.2 receptors expressed in CHO-cells is determined in vitro. The method is modified from NEN Life Science Products, Inc., technical data certificate PC2533-10/96.

**Q.** With “3-(1-{2-[5-(Isobutanolamino)-2-methylphenyl]ethyl}piperidin-4-yl)-5-fluoro-1H-indole [Compound 3f]” as the molecule, how does the “% inhibition of binding at 50 nM” value read?
**A.** 96%

**Q.** For `CC(=O)Nc1ccc(C)c(CCN2CCC(c3c[nH]c4ccc(F)cc34)CC2)c1` [Compound 3a, 3-(1-{2-[5-(Acetylamino)-2-methylphenyl]ethyl}piperidin-4-yl)-5-fluoro-1H-indole], which inhibition at 0.05 µM is on record?
**A.** 83%

**Q.** With `Cc1ccc(NC(=O)C2CCOCC2)cc1CCN1CCC(c2c[nH]c3ccc(F)cc23)CC1` [Compound 3aa, 3-(1-{2-[2-Methyl-5-(tetrahydropyran-4-ylmethanoylamino)phenyl]ethyl}piperidin-4-yl)-5-fluoro-1H-indole] as the molecule, how does the inhibition at 0.05 µM read?
**A.** 96%

**Q.** With `Cc1ccc(NC(=O)c2ccc(Cl)cc2)cc1CCN1CCC(c2c[nH]c3c(Cl)cccc23)CC1` [Compound 3ab, 3-(1-{2-[5-(4-Chlorobenzoylamino)-2-methylphenyl]ethyl}piperidin-4-yl)-7-chloro-1H-indole] as the molecule, how does the inhibition at 0.05 µM read?
**A.** 79%

**Q.** For `Cc1ccc(NC(=O)CCC2CCCCC2)cc1CCN1CCC(c2c[nH]c3ccc(F)cc23)CC1` [Compound 3ac, 3-(1-{2-[5-(3-Cyclohexylpropanoylamino)-2-methylphenyl]ethyl}piperidin-4-yl)-5-fluoro-1H-indole], which inhibition at 0.05 µM is on record?
**A.** 97%

**Q.** How did the inhibition at 0.05 µM turn out when `Cc1ccc(NC(=O)CCc2ccccc2)cc1CCN1CCC(c2c[nH]c3c(Cl)cccc23)CC1` [Compound 3ad, 3-[1-(2-{5-[(3-Phenylpropanoyl)amino]-2-methylphenyl}ethyl)piperidin-4-yl]-7-chloro-1H-indole] was run?
**A.** 83%

**Q.** `Cc1ccc(NC(=O)Cc2ccccc2)cc1CCN1CCC(c2c[nH]c3c(Cl)cccc23)CC1` [Compound 3ae, 3-[1-(2-{5-[(2-Phenylethanoyl)amino]-2-methylphenyl}ethyl)piperidin-4-yl]-7-chloro-1H-indole] was tested. Which inhibition at 0.05 µM did it give?
**A.** 89%

**Q.** `Cc1ccc(C(=O)Nc2ccc(C)c(CCN3CCC(c4c[nH]c5c(Cl)cccc45)CC3)c2)cc1` [Compound 3af, 3-(1-{2-[2-Methyl-5-(4-methylbenzoylamino)phenyl]ethyl}piperidin-4-yl)-7-chloro-1H-indole] was tested. Which inhibition at 0.05 µM did it give?
**A.** 90%

**Q.** `Cc1ccc(NC(=O)C2CC2)cc1CCN1CCC(c2c[nH]c3c(Cl)cccc23)CC1` [Compound 3ag, 3-(1-{2-[5-(Cyclopropylmethanoylamino)-2-methylphenyl]ethyl}piperidin-4-yl)-7-chloro-1H-indole] was tested. Which inhibition at 0.05 µM did it give?
**A.** 95%

**Q.** For `Cc1ccc(NC(=O)c2cccs2)cc1CCN1CCC(c2c[nH]c3ccc(Cl)cc23)CC1` [Compound 3b, 3-(1-{2-[2-Methyl-5-(thiophen-2-ylmethanoylamino)phenyl]ethyl}piperidin-4-yl)-5-chloro-1H-indole], which inhibition at 0.05 µM is on record?
**A.** 86%

**Q.** How did the inhibition at 0.05 µM turn out when `COc1cccc(C(=O)Nc2ccc(C)c(CCN3CCC(c4c[nH]c5ccc(Cl)cc45)CC3)c2)c1` [Compound 3c, 3-(1-{2-[2-Methyl-5-(3-methoxybenzoylamino)phenyl]ethyl}piperidin-4-yl)-5-chloro-1H-indole] was run?
**A.** 68%

**Q.** How did the inhibition at 0.05 µM turn out when `Cc1ccc(NC(=O)C2CC2)cc1CCN1CCC(c2c[nH]c3ccc(F)cc23)CC1` [Compound 3d, 3-(1-{2-[5-(Cyclopropylmethanoylamino)-2-methylphenyl]ethyl}piperidin-4-yl)-5-fluoro-1H-indole] was run?
**A.** 89%

**Q.** How did the inhibition at 0.05 µM turn out when `Cc1ccc(NC(=O)c2cccs2)cc1CCN1CCC(c2c[nH]c3ccc(F)cc23)CC1` [Compound 3e, 3-(1-{2-[2-Methyl-5-(thiophen-2-ylmethanoylamino)phenyl]ethyl}piperidin-4-yl)-5-fluoro-1H-indole] was run?
**A.** 89%

**Q.** For `Cc1ccc(NC(=O)C(C)(C)C)cc1CCN1CCC(c2c[nH]c3ccc(F)cc23)CC1` [Compound 3g, 3-(1-{2-[2-Methyl-5-(pivaloylamino)phenyl]ethyl}piperidin-4-yl)-5-fluoro-1H-indole], which inhibition at 0.05 µM is on record?
**A.** 86%

**Q.** For `CCCCCC(=O)Nc1ccc(C)c(CCN2CCC(c3c[nH]c4ccc(F)cc34)CC2)c1` [Compound 3h, 3-(1-{2-[5-(Hexanoylamino)-2-methylphenyl]ethyl}piperidin-4-yl)-5-fluoro-1H-indole], which inhibition at 0.05 µM is on record?
**A.** 83%

**Q.** `COc1cccc(C(=O)Nc2ccc(C)c(CCN3CCC(c4c[nH]c5ccc(F)cc45)CC3)c2)c1` [Compound 3j, 3-(1-{2-[5-(3-Methoxybenzoylamino)-2-methylphenyl]ethyl}piperidin-4-yl)-5-fluoro-1H-indole] was tested. Which inhibition at 0.05 µM did it give?
**A.** 90%

**Q.** Which inhibition at 0.05 µM does the source give for `Cc1ccc(NC(=O)c2cccnc2)cc1CCN1CCC(c2c[nH]c3ccc(F)cc23)CC1` [Compound 3k, 3-(1-{2-[2-Methyl-5-(pyridin-3-ylmethanoylamino)phenyl]ethyl}piperidin-4-yl)-5-fluoro-1H-indole] here?
**A.** 91%

**Q.** For `Cc1ccc(NC(=O)CCc2ccccc2)cc1CCN1CCC(c2c[nH]c3ccc(F)cc23)CC1` [Compound 3l, 3-(1-{2-[2-Methyl-5-(3-phenylpropanoylamino)phenyl]ethyl}piperidin-4-yl)-5-fluoro-1H-indole], which inhibition at 0.05 µM is on record?
**A.** 74%

**Q.** Which inhibition at 0.05 µM does the source give for `Cc1ccc(C(=O)Nc2ccc(C)c(CCN3CCC(c4c[nH]c5ccc(F)cc45)CC3)c2)cc1` [Compound 3m, 3-(1-{2-[2-Methyl-5-(4-methylbenzoylamino)phenyl]ethyl}piperidin-4-yl)-5-fluoro-1H-indole] here?
**A.** 81%

**Q.** Which inhibition at 0.05 µM does the source give for `Cc1ccc(NC(=O)N(C)c2ccccc2)cc1CCN1CCC(c2c[nH]c3cc(Cl)ccc23)CC1` [Compound 3n, 3-(1-{2-[2-Methyl-5-(3-Methyl-3-phenylureido)phenyl]ethyl}piperidin-4-yl)-6-chloro-1H-indole] here?
**A.** 76%

**Q.** For `Cc1ccc(NC(=O)C2CC2)cc1CCN1CCC(c2c[nH]c3cc(Cl)ccc23)CC1` [Compound 3o, 3-(1-{2-[5-(Cyclopropylmethanoylamino)-2-methylphenyl]ethyl}piperidin-4-yl)-6-chloro-1H-indole], which inhibition at 0.05 µM is on record?
**A.** 99%

**Q.** Which inhibition at 0.05 µM does the source give for `Cc1ccc(NC(=O)c2cccs2)cc1CCN1CCC(c2c[nH]c3cc(Cl)ccc23)CC1` [Compound 3p, 3-(1-{2-[2-Methyl-5-(thiophen-2-ylmethanoylamino)phenyl]ethyl}piperidin-4-yl)-6-chloro-1H-indole] here?
**A.** 92%

**Q.** With `Cc1ccc(NC(=O)C(C)C)cc1CCN1CCC(c2c[nH]c3cc(Cl)ccc23)CC1` [Compound 3q, 3-(1-{2-[5-(Isobutanoylamino)-2-methylphenyl]ethyl}piperidin-4-yl)-6-chloro-1H-indole] as the molecule, how does the inhibition at 0.05 µM read?
**A.** 97%

**Q.** For `COc1cccc(C(=O)Nc2ccc(C)c(CCN3CCC(c4c[nH]c5cc(Cl)ccc45)CC3)c2)c1` [Compound 3r, 3-(1-{2-[5-(3-Methoxybenzoylamino)-2-methylphenyl]ethyl}piperidin-4-yl)-6-chloro-1H-indole], which inhibition at 0.05 µM is on record?
**A.** 88%

**Q.** How did the inhibition at 0.05 µM turn out when `Cc1ccc(NC(=O)c2cccnc2)cc1CCN1CCC(c2c[nH]c3cc(Cl)ccc23)CC1` [Compound 3s, 3-(1-{2-[2-Methyl-5-(pyridin-3-ylmethanoylamino)phenyl]ethyl}piperidin-4-yl)-6-chloro-1H-indole] was run?
**A.** 92%

**Q.** `COc1ccc(CC(=O)Nc2ccc(C)c(CCN3CCC(c4c[nH]c5cc(Cl)ccc45)CC3)c2)cc1` [Compound 3t, 3-[1-(2-{5-[2-(4-Methoxyphenyl)ethanoylamino]-2-methylphenyl}ethyl)piperidin-4-yl]-6-chloro-1H-indole] was tested. Which inhibition at 0.05 µM did it give?
**A.** 75%

**Q.** With `Cc1ccc(C(=O)Nc2ccc(C)c(CCN3CCC(c4c[nH]c5cc(Cl)ccc45)CC3)c2)cc1` [Compound 3u, 3-(1-{2-[2-Methyl-5-(4-methylbenzoylamino)phenyl]ethyl}piperidin-4-yl)-6-chloro-1H-indole] as the molecule, how does the inhibition at 0.05 µM read?
**A.** 86%

**Q.** Which inhibition at 0.05 µM does the source give for `Cc1ccc(NC(=O)C2CCCC2)cc1CCN1CCC(c2c[nH]c3cc(Cl)ccc23)CC1` [Compound 3v, 3-[1-(2-{5-[(Cyclopentylmethanoyl)amino]-2-methylphenyl}ethyl)piperidin-4-yl]-6-chloro-1H-indole] here?
**A.** 95%

**Q.** For `Cc1ccc(NC(=O)N2CCOCC2)cc1CCN1CCC(c2c[nH]c3ccc(F)cc23)CC1` [Compound 3x, 3-(1-{2-[2-Methyl-5-(morfolin-4-ylmethanoylamino)phenyl]ethyl}piperidin-4-yl)-5-fluoro-1H-indole], which “% inhibition of binding at 50 nM” value is on record?
**A.** 90%

**Q.** Which inhibition at 0.05 µM does the source give for `Cc1ccc(NC(=O)Nc2ccc(F)cc2)cc1CCN1CCC(c2c[nH]c3ccc(F)cc23)CC1` [Compound 3y, 3-[1-(2-{5-[3-(4-Fluorophenyl)ureido]-2-methylphenyl}ethyl)piperidin-4-yl]-5-fluoro-1H-indole] here?
**A.** 83%

**Q.** Which inhibition at 0.05 µM does the source give for `CCCCCC(=O)Nc1ccc(C)c(CCN2CCC(c3c[nH]c4c(Cl)cccc34)CC2)c1` [Compound 3z, 3-(1-{2-[5-(Hexanoylamino)-2-methylphenyl]ethyl}piperidin-4-yl)-7-chloro-1H-indole] here?
**A.** 91%

**Q.** With `Cc1ccc(NC(=O)c2ccccc2)cc1CCN1CCC(c2c[nH]c3c(Cl)cccc23)CC1` [Compound 4d, 3-(1-{2-[5-(benzoylamino)-2-Methylphenyl]ethyl}piperidin-4-yl)-7-chloro-1H-indole] as the molecule, how does the inhibition at 0.05 µM read?
**A.** 48%

**Q.** With `Cc1ccc(NC(=O)c2ccc(F)cc2)cc1CCN1CCC(c2c[nH]c3c(Cl)cccc23)CC1` [Compound 4e, 3-(1-{2-[5-(4-Fluorobenzoylamino)-2-methylphenyl]ethyl}piperidin-4-yl)-7-chloro-1H-indole] as the molecule, how does the inhibition at 0.05 µM read?
**A.** 44%
